Patent US9480677B2, “Enantiomers of spiro-oxindole compounds and their uses as therapeutic agents” (Xenon Pharmaceuticals Inc., priority 2009, dated 2016)

What was measured:
hNav1.7 [1] = biological target: T1, hNav1.7 (Homo sapiens, UniProt Q15858); experiment: Electrophysiological assay, whole cell voltage clamp; format: cell-based; design: expressed in transfected cells; host or cells: HEK293
Experimental: HEK293 Cells expressing hNav1.7 were cultured in DMEM growth media (Gibco) with 0.5 mg/mL G418, +/−1% PSG, and 10% heat-inactivated fetal bovine serum at 37° C. and 5% CO2. For electrophysiological recordings, cells were plated on 10 mm dishes.
Whole cell recordings were examined by established methods of whole cell voltage clamp (Bean et al., op. cit.) using an Axopatch 200B amplifier and Clampex software (Axon Instruments, Union City, Calif.). All experiments were performed at ambient temperature. Electrodes were fire-polished to resistances of 2-4 Mohms Voltage errors and capacitance artifacts were minimized by series resistance compensation and capacitance compensation, respectively. Data were acquired at 40 kHz and filtered at 5 kHz. The external (bath) solution consisted of: NaCl (140 mM), KCl (5 mM), CaCl2 (2 mM), MgCl2 (1 mM), HEPES (10 mM) at pH 7.4. The internal (pipette) solution consisted of (in mM): NaCl (5), CaCl2 (0.1), MgCl2 (2), CsCl (10), CsF (120), HEPES (10), EGTA (10), at pH 7.2.
To estimate the steady-state affinity of compounds for the resting and inactivated state of the channel (Kr and Ki, respectively), 12.5 ms test pulses to depolarizing voltages from −60 to +90 m V from a holding potential of −120 m V was used to construct current-voltage relationships (1-V curves). A voltage near the peak of the IV-curve (−30 to 0 m V) was used as the test pulse throughout the remainder of the experiment. Steady-state inactivation (availability) curves were then constructed by measuring the current activated during a 8.75 ms test pulse following 1 second conditioning pulses to potentials ranging from −120 to −10 mV.
The steady-state voltage-dependence of binding of a compound to a voltage-gated sodium channel was determined by measuring the blockage of the ionic current at two holding potentials. Binding to rested-state channels was determined by using a holding potential of −120 mV, so that maximal availability was achieved. Binding to inactivated-state channels was evaluated at a holding potential such that only about 10% of the channels were available to open. The membrane potential was held at this voltage for at least 10 seconds so that drug binding could equilibrate.
The apparent dissociation constant at each voltage was calculated with the equation:
[formula] where Kd is the dissociation constant (either Kr or Ki), and [Drug] is the concentration of the test compound.

hNav1.7 [2] = biological target: T1, hNav1.7; conditions: (S)- versus (R)-enantiomer
[3] = system: local skin toxicity/irritancy

T1 sequence (Q15858 whole entry): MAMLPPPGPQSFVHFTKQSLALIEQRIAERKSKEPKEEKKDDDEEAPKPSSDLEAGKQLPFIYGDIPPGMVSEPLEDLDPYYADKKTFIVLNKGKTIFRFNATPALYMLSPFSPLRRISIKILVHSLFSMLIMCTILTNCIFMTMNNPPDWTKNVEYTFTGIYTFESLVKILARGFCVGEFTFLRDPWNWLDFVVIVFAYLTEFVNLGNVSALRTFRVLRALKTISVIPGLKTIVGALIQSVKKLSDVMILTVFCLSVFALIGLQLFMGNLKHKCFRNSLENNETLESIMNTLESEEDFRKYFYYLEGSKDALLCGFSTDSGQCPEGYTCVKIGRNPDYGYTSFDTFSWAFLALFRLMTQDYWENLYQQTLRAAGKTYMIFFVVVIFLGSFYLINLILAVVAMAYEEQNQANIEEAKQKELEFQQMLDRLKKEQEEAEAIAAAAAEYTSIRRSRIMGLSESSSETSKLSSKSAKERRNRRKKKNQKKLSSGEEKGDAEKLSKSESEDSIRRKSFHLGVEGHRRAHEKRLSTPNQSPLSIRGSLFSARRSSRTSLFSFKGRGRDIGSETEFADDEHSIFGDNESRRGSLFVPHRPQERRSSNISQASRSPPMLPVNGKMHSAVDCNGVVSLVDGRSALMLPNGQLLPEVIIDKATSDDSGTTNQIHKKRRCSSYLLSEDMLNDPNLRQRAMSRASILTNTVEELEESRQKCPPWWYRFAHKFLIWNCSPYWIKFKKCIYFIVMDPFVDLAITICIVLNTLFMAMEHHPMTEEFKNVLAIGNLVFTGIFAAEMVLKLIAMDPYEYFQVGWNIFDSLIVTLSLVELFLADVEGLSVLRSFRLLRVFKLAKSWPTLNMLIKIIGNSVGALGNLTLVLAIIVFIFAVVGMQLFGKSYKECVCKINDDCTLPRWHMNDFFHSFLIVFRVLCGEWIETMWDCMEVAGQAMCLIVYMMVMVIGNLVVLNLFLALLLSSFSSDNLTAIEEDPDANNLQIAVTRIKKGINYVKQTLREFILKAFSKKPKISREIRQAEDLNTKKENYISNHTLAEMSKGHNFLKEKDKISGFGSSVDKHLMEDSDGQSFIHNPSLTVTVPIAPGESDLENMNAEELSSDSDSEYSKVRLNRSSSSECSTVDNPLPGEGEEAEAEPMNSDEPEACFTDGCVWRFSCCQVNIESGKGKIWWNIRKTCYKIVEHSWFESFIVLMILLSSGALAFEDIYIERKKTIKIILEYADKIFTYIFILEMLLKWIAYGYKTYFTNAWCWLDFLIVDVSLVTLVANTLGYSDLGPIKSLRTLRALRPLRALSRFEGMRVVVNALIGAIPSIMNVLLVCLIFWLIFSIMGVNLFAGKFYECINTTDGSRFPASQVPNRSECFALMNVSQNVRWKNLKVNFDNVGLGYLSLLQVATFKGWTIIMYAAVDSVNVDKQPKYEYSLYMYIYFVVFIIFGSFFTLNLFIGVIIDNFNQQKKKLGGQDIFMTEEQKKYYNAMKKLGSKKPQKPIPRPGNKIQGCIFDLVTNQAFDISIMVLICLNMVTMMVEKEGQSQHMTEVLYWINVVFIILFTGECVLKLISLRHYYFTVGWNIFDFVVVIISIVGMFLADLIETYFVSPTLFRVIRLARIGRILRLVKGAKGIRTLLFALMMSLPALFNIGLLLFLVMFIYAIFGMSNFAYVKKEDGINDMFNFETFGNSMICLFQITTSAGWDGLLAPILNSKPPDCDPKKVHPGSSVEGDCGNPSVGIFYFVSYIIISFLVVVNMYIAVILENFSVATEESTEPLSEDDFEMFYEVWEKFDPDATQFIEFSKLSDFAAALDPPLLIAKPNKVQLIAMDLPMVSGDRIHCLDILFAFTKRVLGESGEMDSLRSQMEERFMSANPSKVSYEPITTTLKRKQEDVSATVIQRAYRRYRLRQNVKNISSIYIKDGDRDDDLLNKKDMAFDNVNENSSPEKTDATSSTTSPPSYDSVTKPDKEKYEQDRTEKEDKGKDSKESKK

## O=C1N(Cc2ccc(C(F)(F)F)o2)c2ccccc2[C@]12COc1cc3c(cc12)OCO3 [(I-S), (S)-1′-{[5-(trifluoromethyl)furan-2-yl]methyl}spiro[furo[2,3-f][1,3]benzodioxole-7,3′-indol]-2′(1′H)-one]
hNav1.7 [1]; (S)- versus (R)-enantiomer
  potency in binding to the inactivated-state of hNav1.7 relative to the (R)-enantiomer: about 5 times
hNav1.7 [1]; affinity for the inactivated state of hNav1.7
  Ki: 161 nM
hNav1.7 [1]; affinity for the rested/closed state of hNav1.7, holding potential −120 mV, read-out: Kr
  Kd: > 10000 nM
hNav1.7 [2]
  inhibition potency against hNav1.7 compared to the (R)-enantiomer: > 1000 fold
[3]; 4% and 8% (w/w) ointment daily for 21 days, healthy subjects
  Serious Adverse Events (SAEs) or deaths: No Serious Adverse Events (SAEs) or deaths were reported
[3]; human, in vivo
  cumulative irritation scores versus placebo ointments and negative control (0.9% saline): No difference was observed
  electrocardiography: pulse rate, quiescent resting state, QTc intervals: did not demonstrate clinically significant changes
  severity of Adverse Events (AEs): mild or moderate in severity
  vital signs, physical examinations, laboratory assessments: no clinically significant changes from baseline
[3]; human, in vivo, 21 days
  skin irritation score, maximum: ≤ 3
